# Data: BigSolDB 2.1
structure (smiles),measurement,setting,value
COC(=O)c1cc(O)c(O)c(O)c1,solubility (mole fraction),"in acetone, 293.15 K",0.0929
same,solubility (mole fraction),"in acetone, 298.15 K",0.099
same,solubility (mole fraction),"in acetone, 303.15 K",0.106
same,solubility (mole fraction),"in acetone, 308.15 K",0.113
same,solubility (mole fraction),"in acetone, 313.15 K",0.121
same,solubility (mole fraction),"in acetone, 318.15 K",0.13
same,solubility (mole fraction),"in acetone, 323.15 K",0.139
same,solubility (mole fraction),"in acetone, 328.15 K",0.15
same,solubility (mole fraction),"in acetone, 333.15 K",0.161
same,solubility (mole fraction),"in ethanol, 293.15 K",0.0706
same,solubility (mole fraction),"in ethanol, 298.15 K",0.0758
same,solubility (mole fraction),"in ethanol, 303.15 K",0.0819
same,solubility (mole fraction),"in ethanol, 308.15 K",0.0881
same,solubility (mole fraction),"in ethanol, 313.15 K",0.0955
same,solubility (mole fraction),"in ethanol, 318.15 K",0.103
same,solubility (mole fraction),"in ethanol, 323.15 K",0.11
same,solubility (mole fraction),"in ethanol, 328.15 K",0.119
same,solubility (mole fraction),"in ethanol, 333.15 K",0.128
same,solubility (mole fraction),"in ethyl acetate, 293.15 K",0.0217
same,solubility (mole fraction),"in ethyl acetate, 298.15 K",0.0247
same,solubility (mole fraction),"in ethyl acetate, 303.15 K",0.0283
same,solubility (mole fraction),"in ethyl acetate, 308.15 K",0.0324
same,solubility (mole fraction),"in ethyl acetate, 313.15 K",0.0372
same,solubility (mole fraction),"in ethyl acetate, 318.15 K",0.0425
same,solubility (mole fraction),"in ethyl acetate, 323.15 K",0.0487
same,solubility (mole fraction),"in ethyl acetate, 328.15 K",0.055
same,solubility (mole fraction),"in ethyl acetate, 333.15 K",0.0621
same,solubility (mole fraction),"in isobutanol, 293.15 K",0.02
same,solubility (mole fraction),"in isobutanol, 298.15 K",0.0231
same,solubility (mole fraction),"in isobutanol, 303.15 K",0.0266
same,solubility (mole fraction),"in isobutanol, 308.15 K",0.0306
same,solubility (mole fraction),"in isobutanol, 313.15 K",0.0351
same,solubility (mole fraction),"in isobutanol, 318.15 K",0.0403
same,solubility (mole fraction),"in isobutanol, 323.15 K",0.0462
same,solubility (mole fraction),"in isobutanol, 328.15 K",0.0528
same,solubility (mole fraction),"in isobutanol, 333.15 K",0.0603
same,solubility (mole fraction),"in isopropanol, 293.15 K",0.0505
same,solubility (mole fraction),"in isopropanol, 298.15 K",0.0556
same,solubility (mole fraction),"in isopropanol, 303.15 K",0.0625
same,solubility (mole fraction),"in isopropanol, 308.15 K",0.0677
same,solubility (mole fraction),"in isopropanol, 313.15 K",0.0747
same,solubility (mole fraction),"in isopropanol, 318.15 K",0.0819
same,solubility (mole fraction),"in isopropanol, 323.15 K",0.0902
same,solubility (mole fraction),"in isopropanol, 328.15 K",0.0991
same,solubility (mole fraction),"in isopropanol, 333.15 K",0.107
same,solubility (mole fraction),"in methanol, 293.15 K",0.0812
same,solubility (mole fraction),"in methanol, 298.15 K",0.0864
same,solubility (mole fraction),"in methanol, 303.15 K",0.0931
same,solubility (mole fraction),"in methanol, 308.15 K",0.1
same,solubility (mole fraction),"in methanol, 313.15 K",0.107
same,solubility (mole fraction),"in methanol, 318.15 K",0.115
same,solubility (mole fraction),"in methanol, 323.15 K",0.123
same,solubility (mole fraction),"in methanol, 328.15 K",0.134
same,solubility (mole fraction),"in methanol, 333.15 K",0.143
same,solubility (mole fraction),"in methyl acetate, 293.15 K",0.0266
same,solubility (mole fraction),"in methyl acetate, 298.15 K",0.0305
same,solubility (mole fraction),"in methyl acetate, 303.15 K",0.0348
same,solubility (mole fraction),"in methyl acetate, 308.15 K",0.0396
same,solubility (mole fraction),"in methyl acetate, 313.15 K",0.045
same,solubility (mole fraction),"in methyl acetate, 318.15 K",0.0509
same,solubility (mole fraction),"in methyl acetate, 323.15 K",0.0573
same,solubility (mole fraction),"in methyl acetate, 328.15 K",0.0643
same,solubility (mole fraction),"in methyl acetate, 333.15 K",0.0718
same,solubility (mole fraction),"in n-butanol, 293.15 K",0.0354
same,solubility (mole fraction),"in n-butanol, 298.15 K",0.0398
same,solubility (mole fraction),"in n-butanol, 303.15 K",0.0446
same,solubility (mole fraction),"in n-butanol, 308.15 K",0.0499
same,solubility (mole fraction),"in n-butanol, 313.15 K",0.0557
same,solubility (mole fraction),"in n-butanol, 318.15 K",0.0621
same,solubility (mole fraction),"in n-butanol, 323.15 K",0.069
same,solubility (mole fraction),"in n-butanol, 328.15 K",0.0766
same,solubility (mole fraction),"in n-butanol, 333.15 K",0.0847
same,solubility (mole fraction),"in n-propanol, 293.15 K",0.0425
same,solubility (mole fraction),"in n-propanol, 298.15 K",0.0475
same,solubility (mole fraction),"in n-propanol, 303.15 K",0.053
same,solubility (mole fraction),"in n-propanol, 308.15 K",0.0582
same,solubility (mole fraction),"in n-propanol, 313.15 K",0.0646
same,solubility (mole fraction),"in n-propanol, 318.15 K",0.0713
same,solubility (mole fraction),"in n-propanol, 323.15 K",0.0783
same,solubility (mole fraction),"in n-propanol, 328.15 K",0.0864
same,solubility (mole fraction),"in n-propanol, 333.15 K",0.0957
